Results: patent US20210115104A1, “AMYLIN ANALOGUES” (Zealand Pharma A/S, priority 2015, published 2021)
*1 amine or outer side, *2 acyl side, *3 side chain or, on linkers, in order; H or OH if unused. Where a SMILES comes first, the peptide text is derived from it. Bridges are numbered along the chain shown (N, C = ends). [ ]: non-standard residue; d: D form. The star is where a group is joined. C20 diacid = O=C(O)CCCCCCCCCCCCCCCCCCC(=O)*; γGlu = O=C(O)[C@H](CCC(=O)[*:2])N[*:1]; Hyp = O=C(O)[C@@H]1C[C@@H](O)CN1; NMeI = CC[C@H](C)[C@H](NC)C(=O)O; Aad = N[C@@H](CCCC(=O)O)C(=O)O; Orn = NCCC[C@H](N)C(=O)O; Sar = CNCC(=O)O

Assays:
[1] = target: T1, human calcitonin receptor (hCTR2) (Homo sapiens, UniProt P30988); experiment: hCTR2 cAMP assay (AlphaScreen) in COS7 cells; format: cell-based; conditions: cAMP induction, COS7 cells expressing hCTR2; Table 1; read-out: hCTR2 EC50
T1 construct: expressed in transfected cells
T1 sequence (P30988 25-474): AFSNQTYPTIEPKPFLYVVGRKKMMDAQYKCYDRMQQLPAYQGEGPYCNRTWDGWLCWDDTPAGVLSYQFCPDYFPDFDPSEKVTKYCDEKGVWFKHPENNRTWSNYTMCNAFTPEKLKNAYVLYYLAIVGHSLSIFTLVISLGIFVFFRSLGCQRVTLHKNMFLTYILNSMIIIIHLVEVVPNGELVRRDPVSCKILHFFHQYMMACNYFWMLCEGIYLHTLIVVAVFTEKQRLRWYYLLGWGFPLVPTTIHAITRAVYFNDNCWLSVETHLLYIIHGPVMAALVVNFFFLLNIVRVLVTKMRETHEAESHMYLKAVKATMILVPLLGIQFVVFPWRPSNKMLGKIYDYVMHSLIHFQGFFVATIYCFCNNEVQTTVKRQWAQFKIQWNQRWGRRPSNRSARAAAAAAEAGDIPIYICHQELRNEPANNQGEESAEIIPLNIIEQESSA
In short: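 Stable hCTR2 clone in RAMP-naïve COS7 cells stimulated 15 min at 37 °C with increasing peptide concentrations in Tyrode buffer pH 7.4 containing IBMX and 0.1% casein. cAMP in lysates measured by AlphaScreen; EC50 from 4-parameter logistic fit.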

[2] = target: T2, human amylin receptor 3 (hAMYR3), hCTR2 co-expressed with hRAMP3 (Homo sapiens, UniProt O60896+P30988); experiment: hAMYR3 cAMP assay (AlphaScreen) in COS7 cells; format: cell-based; conditions: cAMP induction, COS7 cells expressing hAMYR3; Table 1; read-out: hAMYR3 EC50
T2 construct: expressed in transfected cells
T2 sequence (P30988 25-474): T1 sequence (P30988 25-474)
T2 sequence (O60896 24-148 partner): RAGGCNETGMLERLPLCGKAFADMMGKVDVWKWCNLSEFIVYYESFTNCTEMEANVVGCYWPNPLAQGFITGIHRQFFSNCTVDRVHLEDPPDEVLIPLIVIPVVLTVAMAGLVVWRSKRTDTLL
Source text: The cell line COS7, originating from African Green Monkey kidney fibroblast cells, was used for establishment of the stable cell lines described below. The COS7 cellular background was used due to it being RAMP naïve, and as such it provides the best available system for testing of the monomeric hCTR and different heterodimeric amylin receptor subtypes functionally generated by introduction of the individual RAMPs.
A cell line expressing the human amylin receptor 3 (hAMYR3) was generated in the COS7 cellular background as stable clones. In brief, hCTR2 (GI:4502547) and hRAMP3 (GI:118572586) were amplified by PCR using primers encoding terminal restriction sites for subcloning. The 5′-end primers additionally encoded a near Kozak consensus sequence to ensure efficient translation. The fidelity of the DNA encoding the receptor was confirmed by DNA sequencing. The PCR products encoding the receptor were subcloned into a proprietary tri-cistronic mammalian expression vector with RAMP3, hCTR2 and neomycin (G418) resistance marker. The mammalian expression vector encoding the receptor was transfected into COS7 cells by a standard liposome transfection method. 48 hours post-transfection, cells were seeded for limited dilution cloning and selected with 1 mg/ml G418 in the culture medium. After 3 weeks, surviving colonies of hAMY3R-expressing cells were picked, propagated and tested in the amylin efficacy assay as described in Example 3 below. The functional generation of the amylin receptor phenotype was verified in the efficacy assay by a left-shifted efficacy response to amylin relative to monomeric calcitonin receptor, and one hAMYR3-expressing clone was chosen for compound profiling.
In vitro activity of test peptides at the hCTR2 and hAMYR3 receptors was assessed by measuring the induction of cAMP following stimulation of the receptor using the AlphaScreen® cAMP Assay kit from Perkin-Elmer.
Briefly, COS7 cells expressing hCTR2 (see Example 2, above) were seeded at 30-40,000 cells per well in 96-well microtiter plates coated with 0.01% poly-L-lysine, and grown for 1 day in culture in 100 μl growth medium [DMEM, 10% FCS, Penicillin (100 IU/ml), Streptomycin (100 μg/ml)]. On the day of analysis, growth medium was removed and the cells were washed once with 200 μl Tyrode buffer [Tyrode's Salts (9.6 g/I), 10 mM HEPES, pH 7.4]. Cells were incubated in 100 μl Tyrode buffer containing increasing concentrations of test peptides, 100 µM IBMX and 0.1% casein for 15 min at 37° C. The reaction was stopped by carefully decanting off the compound/buffer medium and replacing it with lysis/detection buffer (80 μl 0.1% w/v BSA, 5 mM HEPES, 0.3% v/v Tween-20 in deionized water). After incubation at room temperature for 10 min., the cAMP content of the resulting cell lysate was estimated according to the AlphaScreen® cAMP Assay manufacturer's instructions. EC50 values were estimated by computer-aided curve fitting using the 4-parameter logistic (4PL) non-linear model.

[3] = Assessment of physical stability (Thioflavin T fibrillation); format: physicochemical; design: key: FND = fibrillation not detected; FD = fibrillation detected; conditions: 1 mg/ml, 40° C., ThT; for Fibrillation pH 4.0 (Ac): 50 mM acetate buffer pH 4.0, 96 hours; for Fibrillation pH 7.0 (His): 50 mM histidine buffer pH 7.0, 96 hours; for Fibrillation pH 7.0 (Phos.): 50 mM phosphate buffer pH 7.0, 96 hours
In short: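 1 mg/ml peptide with 40 μM ThT in 50 mM phosphate pH 7.0, 50 mM histidine pH 7.0 or 50 mM acetate pH 4.0, in triplicate. Fluorescence read every 10 min after 300 s agitation over 96 h at 40 °C. Lag-time (h) is the intersection of linear fits to stable and growth phases.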

[4] = Assessment of chemical stability (RP-HPLC normalized purity); format: physicochemical; conditions: 7 days, 40° C., Table 1
In short: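 Peptides at 0.2 mg/ml in water adjusted to pH 4, 6, 7.5 or 9, incubated at 40° C for 7 days. Main-peak area-% by RP-HPLC (C8 ammonium formate or C18 TFA gradient, UV 220 nm), normalized to T=0 as 100.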

EC50 [1] [nM]	EC50 [2] [nM]	Fibrillation pH 4.0 (Ac) [3]	Fibrillation pH 7.0 (His) [3]	Fibrillation pH 7.0 (Phos.) [3]	Normalized purity after 7 days, 40° C., pH 4 ([4]; pH 4, 0.2 mg/ml)	Normalized purity after 7 days, 40° C., pH 6 ([4]; pH 6, 0.2 mg/ml)	Normalized purity after 7 days, 40° C., pH 7.5 ([4]; pH 7.5, 0.2 mg/ml)	Normalized purity after 7 days, 40° C., pH 9 ([4]; pH 9, 0.2 mg/ml)	Structure (SMILES)
0.2	0.3	–	–	–	–	–	–	–	CC[C@H](C)[C@@H](C(=O)N[C@@H](CC(C)C)C(=O)N[C@@H](CO)C(=O)N[C@@H](CO)C(=O)N[C@H](C(=O)N[C@@H](CCC(=O)O)C(=O)N[C@H](C(=O)NCC(=O)N[C@@H](CO)C(=O)N[C@@H](CCCN)C(=O)N[C@H](C(=O)N1C[C@H](O)C[C@H]1C(N)=O)[C@@H](C)O)C(C)C)[C@@H](C)O)N(C)C(=O)[C@H](C)NC(=O)CN(C)C(=O)[C@H](Cc1ccccc1)NC(=O)[C@H](CO)NC(=O)[C@H](CO)NC(=O)[C@H](CCCNC(=N)N)NC(=O)[C@@H](NC(=O)[C@H](CC(C)C)NC(=O)[C@H](Cc1ccccc1)NC(=O)[C@H](CCCC(=O)O)NC(=O)[C@H](C)NC(=O)[C@H](CC(C)C)NC(=O)[C@H](CCCNC(=N)N)NC(=O)[C@H](CCC(=O)O)NC(=O)[C@@H](NC(=O)[C@H](C)NC(=O)[C@@H]1CSSC[C@H](NC(=O)[C@H](CCCNC(=N)N)NC(=O)CC[C@H](NC(=O)CCCCCCCCCCCCCCCCCCC(=O)O)C(=O)O)C(=O)NCC(=O)N[C@@H]([C@@H](C)O)C(=O)N[C@@H](C)C(=O)N[C@@H]([C@@H](C)O)C(=O)N1)[C@@H](C)O)[C@@H](C)O [Compound 44, [19CD]-isoGlu-R-C( )-GTAT-C( )-ATERLA-Aad-FLTRSSF-Gly(Me)-A-Ile(Me)-LSSTEVGS-Orn-T-Hyp-NH2] ({C20 diacid-γGlu}-RCGTATCATERLA[Aad]FLTRSSF[Sar]A[NMeI]LSSTEVGS[Orn]T[Hyp]-NH2; disulfide 2-7)
–	0.59	FND	FD	FND	–	–	–	–	CC[C@H](C)[C@@H](C(=O)N[C@@H](CC(C)C)C(=O)N[C@@H](CO)C(=O)N[C@@H](CO)C(=O)N[C@H](C(=O)N[C@@H](CCC(=O)O)C(=O)N[C@H](C(=O)NCC(=O)N[C@@H](CO)C(=O)N[C@@H](CCC(=O)O)C(=O)N[C@H](C(=O)N1CCC[C@H]1C(N)=O)[C@@H](C)O)C(C)C)[C@@H](C)O)N(C)C(=O)[C@H](C)NC(=O)CN(C)C(=O)[C@H](Cc1ccccc1)NC(=O)[C@H](CO)NC(=O)[C@H](CO)NC(=O)[C@H](CCCNC(=N)N)NC(=O)[C@@H](NC(=O)[C@H](CC(C)C)NC(=O)[C@H](Cc1ccccc1)NC(=O)[C@H](Cc1c[nH]cn1)NC(=O)[C@H](C)NC(=O)[C@H](CC(C)C)NC(=O)[C@H](CCCNC(=N)N)NC(=O)[C@H](CCC(=O)O)NC(=O)[C@@H](NC(=O)[C@H](C)NC(=O)[C@@H]1CSSC[C@H](NC(=O)[C@H](CCCNC(=N)N)NC(=O)CC[C@H](NC(=O)CCCCCCCCCCCCCCCCCCC(=O)O)C(=O)O)C(=O)NCC(=O)N[C@@H]([C@@H](C)O)C(=O)N[C@@H](C)C(=O)N[C@@H]([C@@H](C)O)C(=O)N1)[C@@H](C)O)C(C)C [Compound 22, [19CD]-isoGlu-R-C( )-GTAT-C( )-ATERLAHFLVRSSF-Gly(Me)-A-Ile(Me)-LSSTEVGSETP-NH2] ({C20 diacid-γGlu}-RCGTATCATERLAHFLVRSSF[Sar]A[NMeI]LSSTEVGSETP-NH2; disulfide 2-7)
–	0.26	FND	FND	FND	A (A = >90%)	A (A = >90%)	A (A = >90%)	A (A = >90%)	CC[C@H](C)[C@@H](C(=O)N[C@@H](CC(C)C)C(=O)N[C@@H](CO)C(=O)N[C@@H](CO)C(=O)N[C@H](C(=O)N[C@@H](CCC(=O)O)C(=O)N[C@H](C(=O)NCC(=O)N[C@@H](CO)C(=O)N[C@H](C(=O)N[C@H](C(=O)N1C[C@H](O)C[C@H]1C(N)=O)[C@@H](C)O)[C@@H](C)O)C(C)C)[C@@H](C)O)N(C)C(=O)[C@H](C)NC(=O)CN(C)C(=O)[C@H](Cc1ccccc1)NC(=O)[C@H](CO)NC(=O)[C@H](CO)NC(=O)[C@H](CCCNC(=N)N)NC(=O)[C@@H](NC(=O)[C@H](CC(C)C)NC(=O)[C@H](Cc1ccccc1)NC(=O)[C@H](Cc1c[nH]cn1)NC(=O)[C@H](C)NC(=O)[C@H](CC(C)C)NC(=O)[C@H](CCCNC(=N)N)NC(=O)[C@H](CCC(=O)O)NC(=O)[C@@H](NC(=O)[C@H](C)NC(=O)[C@@H]1CSSC[C@H](NC(=O)[C@H](CCCNC(=N)N)NC(=O)CC[C@H](NC(=O)CCCCCCCCCCCCCCCCCCC(=O)O)C(=O)O)C(=O)NCC(=O)N[C@@H]([C@@H](C)O)C(=O)N[C@@H](C)C(=O)N[C@@H]([C@@H](C)O)C(=O)N1)[C@@H](C)O)[C@@H](C)O [Compound 48, [19CD]-isoGlu-R-C( )-GTAT-C( )-ATERLAHFLTRSSF-Gly(Me)-A-Ile(Me)-LSSTEVGSTT-Hyp-NH2] ({C20 diacid-γGlu}-RCGTATCATERLAHFLTRSSF[Sar]A[NMeI]LSSTEVGSTT[Hyp]-NH2; disulfide 2-7)
–	0.13	–	–	–	–	–	–	–	CC[C@H](C)[C@@H](C(=O)N[C@@H](CC(C)C)C(=O)N[C@@H](CO)C(=O)N[C@@H](CO)C(=O)N[C@H](C(=O)N[C@@H](CC(=O)O)C(=O)N[C@H](C(=O)NCC(=O)N[C@@H](CO)C(=O)N[C@@H](CC(=O)O)C(=O)N[C@H](C(=O)N1CCC[C@H]1C(N)=O)[C@@H](C)O)C(C)C)[C@@H](C)O)N(C)C(=O)[C@H](C)NC(=O)CN(C)C(=O)[C@H](Cc1ccccc1)NC(=O)[C@H](CO)NC(=O)[C@H](CO)NC(=O)[C@H](CCCNC(=N)N)NC(=O)[C@@H](NC(=O)[C@H](CC(C)C)NC(=O)[C@H](Cc1ccccc1)NC(=O)[C@H](Cc1c[nH]cn1)NC(=O)[C@H](C)NC(=O)[C@H](CC(C)C)NC(=O)[C@H](CCCNC(=N)N)NC(=O)[C@H](CC(=O)O)NC(=O)[C@@H](NC(=O)[C@H](C)NC(=O)[C@@H]1CSSC[C@H](NC(=O)[C@H](CCCNC(=N)N)NC(=O)CC[C@H](NC(=O)CCCCCCCCCCCCCCCCCCC(=O)O)C(=O)O)C(=O)N2CCC[C@H]2C(=O)N[C@@H]([C@@H](C)O)C(=O)N[C@@H](C)C(=O)N[C@@H]([C@@H](C)O)C(=O)N1)[C@@H](C)O)C(C)C [Compound 23, [19CD]-isoGlu-R-C( )-PTAT-C( )-ATDRLAHFLVRSSF-Gly(Me)-A-Ile(Me)-LSSTDVGSDTP-NH2] ({C20 diacid-γGlu}-RCPTATCATDRLAHFLVRSSF[Sar]A[NMeI]LSSTDVGSDTP-NH2; disulfide 2-7)
